{"source": "ChEMBL document CHEMBL1153021", "about": "“Phenylphenalenones from the Australian plant Haemodorum simplex” (J Nat Prod, 2009)", "key": {"P388": {"tested_on": "P388", "experiment": "Cytotoxicity against mouse P388 cells after 72 hrs by MTT assay", "type": "functional, cell-based", "details": "P388, 72 h"}, "Bacillus subtilis": {"tested_on": "Bacillus subtilis", "experiment": "Antibacterial activity against Bacillus subtilis ATCC 19659 at 30 ug", "type": "functional", "details": "read-out: IZ"}, "Amorphotheca resinae": {"tested_on": "Amorphotheca resinae", "experiment": "Antifungal activity against Cladosporium resinae at 100 IU", "type": "functional, organism-based"}, "[1]": {"tested_on": "Trichophyton mentagrophytes", "experiment": "Antifungal activity against Trichophyton mentagrophytes ATCC 28185 at 100 IU", "type": "functional, organism-based"}}}
{"compound": "COc1cc2c3c(ccc(-c4ccccc4)c3c1OC)C(=O)OC2=O", "values": [{"measurement": "IC50", "setting": "P388", "result": "> 26", "unit": "µM"}]}
{"compound": "O=C(N[C@H](CO)[C@H](O)c1ccc([N+](=O)[O-])cc1)C(Cl)Cl", "note": "[CHLORAMPHENICOL]", "values": [{"measurement": "zone of inhibition at 30 µg/disc", "setting": "Bacillus subtilis", "result": 12, "unit": "mm"}]}
{"compound": "COC1=Cc2cc(O)c(O[C@@H]3O[C@H](CO)[C@@H](O)[C@H](O)[C@H]3O)c3c(-c4ccccc4)ccc(c23)C1=O", "note": "[DILATRIN]", "values": [{"measurement": "IC50", "setting": "P388", "result": "> 26", "unit": "µM"}]}
{"compound": "COc1c(O)cc2c3c(ccc(-c4ccc(O)cc4)c13)C(=O)OC2=O", "note": "[HAEMODOROL]", "values": [{"measurement": "IC50", "setting": "P388", "result": "> 26", "unit": "µM"}]}
{"compound": "COc1c(O)cc2c3c(ccc(-c4ccccc4)c13)C(=O)OC2=O", "note": "[HAEMODORONE]", "values": [{"measurement": "IC50", "setting": "P388", "result": "> 26", "unit": "µM"}]}
{"compound": "COc1cc2c3c(ccc(-c4ccccc4)c3c1O[C@@H]1O[C@H](CO)[C@@H](O)[C@H](O)[C@H]1O)C(=O)OC2", "note": "[HAEMODOROSE]", "values": [{"measurement": "IC50", "setting": "P388", "result": "> 26", "unit": "µM"}]}
{"compound": "COC1=Cc2cc(OC)c(O)c3c(-c4ccccc4)ccc(c23)C1=O", "note": "[XIPHIDONE]", "values": [{"measurement": "IC50", "setting": "P388", "result": "> 26", "unit": "µM"}]}
{"compound": "NYSTATIN", "values": [{"measurement": "inhibition zone (IZ)", "setting": "Amorphotheca resinae", "result": 10, "unit": "mm"}, {"measurement": "inhibition zone (IZ)", "setting": "[1]", "result": 6, "unit": "mm"}]}
